In brackets after ≈: the same amount, converted by molar mass. Where two headings read alike, the source gives them in different places.
Columns and labels:
[1] = test system: TPC-1; test: MTT viability assay, TPC-1 papillary thyroid carcinoma cells; format: cell-based, human; conditions: for IC50: Homo sapiens, TPC1; for Cell viability: TPC-1, 24 h
Source text: (§1) Cell lines of different origins were used in the study and grouped as follows: prostate panel (human prostate carcinomas: DU145, derived from metastatic site: brain; grade IV PC3, derived from metastatic site: bone; LNCaP, derived from the metastatic site: lymph node; prostate epithelial, PNT2), colon panel (colorectal adenocarcinomas: HT29, originating from a primary tumor; Duke’s type C DLD-1, with the potential to lymph node metastasis; highly metastatic HCT116; colon epithelial cells CCD 841 CoN), thyroid panel (follicular thyroid carcinoma FTC133, anaplastic thyroid carcinoma 8505C, papillary thyroid carcinoma TPC-1, normal thyroid follicular epithelial Nthy-ori 3–1), breast panel (ER-positive breast adenocarcinoma MCF7, ER-negative breast adenocarcinoma MDA-MB-231, breast epithelial MCF10A), brain panel (neuroblastoma SH-SY5Y, glioblastoma U-87 MG, murine astrocytes C8D1A). All cell lines were purchased from Merck (Darmstadt, Germany).
(§2) Cells were grown under standard conditions (37 °C, 5% CO2) and culture media (DMEM/F12 for PNT2, PC3, FTC133, 8505 C, MDA-MB-231, TPC-1; DMEM Low Glucose for DU145; DMEM High Glucose for HCT116, DLD-1, SH-SY5Y, U87MG, C8D1A; MEM with NEAA for MCF7; MEM for CCD 841 CoN; McCoy’s for HT29; RPMI1640 with sodium pyruvate for LNCaP; DMEM/F12 with 20 ng/mL epidermal growth factor (EGF), 10 μg/mL insulin, 0.5 μg/mL hydrocortisone, 100 ng/mL cholera toxin) for MCF10A), supplemented with 10% fetal bovine serum (FBS) or 5% donor horse serum for MCF10A, and 1% antibiotics solution (10,000 U penicillin and 10 mg streptomycin/mL). The tested substances were prepared as 10 mg/mL stock solutions in DMSO and further diluted in the culture media to the working concentrations. Cells were treated with UA enantiomers at the concentration range of 0–50 µg/mL. The influence of DMSO on cell viability was also examined, with the final concentration […], and no toxic effect was noted.
(§3) The cells were seeded onto 96-well plates at a density of 1.5 × 10^4 cells/well. After 24 h UA enantiomers were added. Cell viability was determined after 24, 48, and 72 h by the MTT assay, as described previously. Doxorubicin was used as a reference cytostatic drug. All analyses were performed in triplicate; cell viability was expressed as % of control, untreated cells (mean ± SD), and IC50 values (concentration at which cell viability is inhibited by 50%), if possible.
(§4) The selectivity index (SI) was calculated, if possible, by dividing the IC50 value obtained for non-cancerous cells line by the IC50 values obtained for appropriate cancer cell line, as described previously. […] The values above 3 indicate good selectivity.

[2] = test system: FTC133; test: MTT viability assay, FTC133 follicular thyroid carcinoma cells; format: cell-based, human; conditions: for Cell viability: FTC-133, 24 h; for IC50: Homo sapiens, FTC-133
Source text: as §1, §2, §3, §4

[3] = test system: MCF7 cells; set-up: method as in not printed ('another' study); conditions: MCF7, 72 h, ref not given ('another' study), cited from earlier work
[4] = test system: DU145 cells; conditions: DU145, 72 h, cited from earlier work
[5] = test system: HT29 cells; conditions: HT29, 48 h, cited from earlier work
[6] = test system: HepG2 cells; set-up: method as in PMID 40368021; conditions: cited from earlier work
[7] = test system: SH-SY5Y; test: MTT viability assay, neuroblastoma SH-SY5Y cells; format: cell-based, human; conditions: SHSY5Y, 24 h
Source text: as §1, §2, §3

[8] = test system: MCF10A; test: MTT viability assay, normal breast epithelial cells; format: cell-based, human; conditions: for IC50: Homo sapiens, MCF-10A, MCF10A normal cells; for Cell viability: MCF10A, 24 h
Source text: as §1, §2, §3

[9] = test system: glioblastoma U251 cells; set-up: method as in PMID 18558490; conditions: U251, 72 h, cited from earlier work
[10] = test system: WM793 cells; set-up: method as in PMID 34577645; conditions: WM793, 48 h; cited from earlier work
[11] = test system: CCD 841 CoN; test: MTT viability assay, normal colon epithelial cells; format: cell-based, human; conditions: for Cell viability: CCD 841 CoN, 24 h; for IC50: Homo sapiens, CCD-841CoN
Source text: as §1, §2, §3

[12] = test system: HCT116; test: MTT viability assay, HCT116 colon cancer cells; format: cell-based, human; conditions: for Cell viability: HCT116, 24 h; for IC50: Homo sapiens, HCT-116
Source text: as §1, §2, §3

[13] = recalculated from µM by the authors

CC(=O)C1=C(O)C=C2Oc3c(C(C)=O)c(O)c(C)c(O)c3[C@]2(C)C1=O [UA(−), (−)-usnic acid]
IC50 ([1]; TPC-1, 48 h): > 50 µg/mL | IC50 ([1]; TPC-1, 72 h): 39.2 µg/mL (≈ 114 µM) | selectivity index (SI) ([1]; IC50 Nthy ori 3-1 / IC50 TPC-1, 72 h): 0.74 | Cell viability ([1]; 2.5 µg/mL): 96.85 % of control | Cell viability ([1]; 5 µg/mL): 104.40 % of control | Cell viability ([1]; 10 µg/mL): 96.79 % of control | Cell viability ([1]; 20 µg/mL): 93.49 % of control | Cell viability ([1]; 30 µg/mL): 91.95 % of control | Cell viability ([1]; 40 µg/mL): 92.26 % of control | Cell viability ([1]; 50 µg/mL): 92.38 % of control | Cell viability ([2]; 2.5 µg/mL): 108.51 % of control | Cell viability ([2]; 5 µg/mL): 106.14 % of control | Cell viability ([2]; 10 µg/mL): 87.63 % of control | Cell viability ([2]; 20 µg/mL): 89.56 % of control | Cell viability ([2]; 30 µg/mL): 93.33 % of control | Cell viability ([2]; 40 µg/mL): 86.67 % of control | Cell viability ([2]; 50 µg/mL): 83.25 % of control | IC50 ([2]; FTC133, 48 h): > 50 µg/mL | IC50 ([2]; FTC133, 72 h): 35.3 µg/mL (≈ 103 µM) | selectivity index (SI) ([2]; IC50 Nthy ori 3-1 / IC50 FTC133, 72 h): 0.83 | IC50 [3, 13]: 17.8 µg/mL | IC50 ([3]; read-out: IC50): 51.7 µM | IC50 [4, 13]: 15.8 µg/mL | IC50 ([4]; read-out: IC50): 45.9 µM | IC50 [5, 13]: 18.9 µg/mL | IC50 ([5]; read-out: IC50): 55 µM | IC50 (hepatotoxicity) ([6]; HepG2, 48 h): 16.0 µg/mL (≈ 46.5 µM) | IC50 (hepatotoxicity) ([6]; HepG2, 72 h): 18.3 µg/mL (≈ 53.1 µM) | Cell viability ([7]; 2.5 µg/mL): 96.79 % of control | Cell viability ([7]; 5 µg/mL): 99.17 % of control | Cell viability ([7]; 10 µg/mL): 98.10 % of control | Cell viability ([7]; 20 µg/mL): 96.67 % of control | Cell viability ([7]; 30 µg/mL): 92.62 % of control | Cell viability ([7]; 40 µg/mL): 98.57 % of control | Cell viability ([7]; 50 µg/mL): 99.40 % of control | IC50 ([8]; 48 h): > 50 µg/mL | IC50 ([8]; 72 h): > 50 µg/mL | Cell viability ([8]; 2.5 µg/mL): 102.83 % of control | Cell viability ([8]; 5 µg/mL): 100.30 % of control | Cell viability ([8]; 10 µg/mL): 101.52 % of control | Cell viability ([8]; 20 µg/mL): 98.59 % of control | Cell viability ([8]; 30 µg/mL): 100.10 % of control | Cell viability ([8]; 40 µg/mL): 103.54 % of control | Cell viability ([8]; 50 µg/mL): 99.39 % of control | IC50 [9, 13]: 6.8 µg/mL | IC50 ([9]; read-out: IC50): 19.7 µM | IC50 [10]: 52.09 µg/mL (≈ 151 µM) | Cell viability ([11]; 2.5 µg/mL): 98.61 % of control | Cell viability ([11]; 5 µg/mL): 98.89 % of control | Cell viability ([11]; 10 µg/mL): 96.39 % of control | Cell viability ([11]; 20 µg/mL): 99.72 % of control | Cell viability ([11]; 30 µg/mL): 96.11 % of control | Cell viability ([11]; 40 µg/mL): 96.94 % of control | Cell viability ([11]; 50 µg/mL): 93.06 % of control | IC50 ([11]; 48 h): > 50 µg/mL | IC50 ([11]; 72 h): > 50 µg/mL | Cell viability ([12]; 2.5 µg/mL): 112.65 % of control | Cell viability ([12]; 5 µg/mL): 108.16 % of control | Cell viability ([12]; 10 µg/mL): 96.26 % of control | Cell viability ([12]; 20 µg/mL): 84.97 % of control | Cell viability ([12]; 30 µg/mL): 72.86 % of control | Cell viability ([12]; 40 µg/mL): 71.90 % of control | Cell viability ([12]; 50 µg/mL): 73.33 % of control | IC50 ([12]; HCT116, 48 h): 26.2 µg/mL (≈ 76.1 µM) | IC50 ([12]; HCT116, 72 h): 10.7 µg/mL (≈ 31.1 µM)
